Laboratory results from patent US20240059685A1, “PIEZO1 AGONISTS FOR THE PROMOTION OF BONE FORMATION” (BIOVENTURES, LLC, priority 2019, published 2024).
Entries after “also recorded” stand apart in the source; their conditions may differ.

Key:
Assay type in all cases: cell-based, murine
[1] = biological target: T1, Piezo1 (Mus musculus, UniProt E2JF22); assay: Intracellular calcium concentration (Fluo-8) in control or Piezo1 knock-down MLO-Y4 cells; conditions: Piezo1 knock-down (sh-Piezo1) MLO-Y4 cells, 10 μM
T1 construct: To identify Piezo1 stimulators, we treated MLO-Y4 cells with compounds; endogenous in cells; host or cells: MLO-Y4 (murine osteocyte-like cell line); control sh-Luc cells, with sh-Piezo1 knock-down cells as the specificity control
Method: Calcium concentration measurement. For intracellular calcium concentration measurement under fluid flow condition, 1×10^5 MLO-Y4 cells were seeded in a μ-Slide I Luer (0.4 mm) fluid chamber slide (MIDI, Germany) overnight. One hour before initiating fluid flow, the culture medium was removed and 100 μl Hank's Buffer with Hepes (HHBS) containing 4μM Fluo-8 (Abcam, Cambridge, MA) was added to the culture, as described by the manufacturer. The cells were then cultured at 37° C. for 30 minutes. After additional incubation at room temperature for 30 minutes, the chamber slide was placed under a confocal microscope in order to record the intensity of fluorescence of MLO-Y4 cells. Fluorescence was recorded for 3 minutes before starting fluid flow using HHBS and then recorded for another 10 minutes. The increase of intracellular concentration was calculated by subtracting the initial mean fluorescence. For measuring intracellular calcium concentration in cells with Yoda1 treatment, we cultured 4,000 MLO-Y4 cells per well in a 96-well-plate. We preloaded the cells with Fluo-8 as described by the manufacturer and read the intensity of the fluorescence using a Victor X3 multi-label plate reader (Perkin Elmer, Waltham, MA) immediately after the treatment. We measured the fluorescence for 5 minutes at an interval of 20 seconds. The percentage of increase in intracellular calcium concentration was calculated as (Fx-F0)/F0.
(§1) To identify Piezo1 stimulators, we treated MLO-Y4 cells with compounds Yoda1, YW-3-159, W-3-163, W-3-168-1, W-3-168-2, W-3-170, W-3-173-1, W-3-173-2, and YW-3-174. Gene expression of Wnt1, Ptgs2, and Tnfrsf11b was measured to determine the activation of Piezo1. In addition, intracellular calcium concentration was measured to determine the activity of Piezo1 channel. […] Yoda1 was used as a positive control in all experiments.

[2] = biological target: T1, Piezo1; assay: qPCR gene expression of Wnt1, Ptgs2 and Tnfrsf11b in MLO-Y4 cells; conditions: MLO-Y4 cells, 10 μM, 2 hours
Method: Cell cultures. MLO-Y4 cells were cultured in α-MEM supplemented with 5% FBS, 5% BCS, and 1% penicillin/streptomycin/glutamine. Fifteen dynes/cm^2 oscillatory fluid shear stress was applied on MLO-Y4 cells at 1 Hz for 2 hours using an IBDI pump system (IBIDI, German). For Yoda1 treatment, cells were cultured in the presence of 10 μM Yoda1 (Sigma, St. Louis, MO) or DMSO for 2 hours. Immediately after the treatments, we isolated RNA from cells using RNeasy mini kit (Qiagen, German) for qPCR or RNA-seq analysis. To silence Piezo1, we generated Piezo1 shRNA expression plasmid using the following oligonucleotides in the pLKO.1-TRC cloning vector (Addgene Plasmid #10878, a gift from David Root): forward oligo: 5′-CCGGTC-[…]-3′ (SEQ ID NO: 1); reverse oligo: 5′-[…]-CGA-3′ (SEQ ID NO: 2) (Zhang et al., 2017). Yap1 shRNA (TRCN0000238432) and Taz shRNA (TRCN0000095951) were purchased from Sigma (St. Louis, MO). A shRNA against firefly luciferase was used as a control (Sigma, St. Louis, MO). For virus production, HEK293T cells were cultured in a 6-well culture plate and co-transfected with a total 3 μg of lentiviral shRNA vector, pMD2G (Addgene plasmid #12259, a gift from Didier Trono), and psPAX2 (Addgene plasmid #12260, a gift from Didier Trono) at the ratio of 2:0.9:0.4 using TransIT-LT1 transfection reagent (Mirus, Madison, WI). Culture media was changed 12 hours after transfection and viral supernatants were collected 48 hours after media change. Viral supernatants were filtered through a 0.45 μm filter and used immediately to transduce cells cultured in a 10 cm dish. Cells were then subjected to selection with G418 (100 μg/ml) or puromycin (25 μg/ml) for 5 days before treatment. To overexpress Piezo1 in MLO-Y4 cells, we transfected mPiezo1-IRES-eGFP (Addgene plasmid #80925, a gift from Ardem Patapoutian) into MLO-Y4 cells using TransIT-LT1 transfection reagent (Mirus, Madison, WI) and then treated these cells with 15 dynes/cm^2 oscillatory fluid shear stress at 1 Hz for 2 hours. Plasmids for expression of Cas9 and sgRNAs for knocking out Piezo1 in UAMS-32 cells were prepared by inserting oligonucleotides encoding the desired sgRNA sequence into the pX458 vector using the protocol recommended by the Zhang laboratory (Cong et al., 2013). Plasmids expressing Cas9 and Piezo1 sgRNAs were transfected into UAMS-32 cells using TransIT-LT1 transfection reagent (Mirus, Madison, WI). Cells were sorted into 96-well plates for single cell cloning 48 hours after transfection. Single cell colonies were then screened for homozygous deletion using the following primers: Forward: 5′-[…]-3′ (SEQ ID NO: 5), Reverse: 5′-[…]-3′ (SEQ ID NO: 6). All homozygous mutant cell colonies were then pooled together for further analysis. Cas9 transfected cells were used as a control. All in vitro cell culture experiments were performed three times with three technical replicates.
Quantitative PCR. Organs and whole bones were harvested from animals, removed of soft tissues, and stored immediately in liquid nitrogen. We prepared osteocyte-enriched bone by removing the ends of femurs and tibias and then flushing the bone marrow with PBS. We then scraped the bone surface with a scalpel and froze them in liquid nitrogen for later RNA isolation, or decalcified them for genomic DNA isolation. We isolated total RNA using TRIzol (Life technologies, NY), according to the manufacturer's instructions and prepared cDNA using High Capacity first strand cDNA synthesis kit (Life Technologies). We performed quantitative RT-PCR using the following Taqman assays from Applied Biosystems: Piezo1 (Mm01241549_m1); Piezo2 (Mm01265861_m1); Ptgs2 (Mm00478374_m1); Cyr61 (Mm00487498_m1); Wnt1 (Mm01300-555_g1); Yap1 (Mm011432-63_m1); Taz (Mm01289583_m1); Tnfsf11 Mm00441906_m1; Tnfrsf11b (Mm00435452_m1); Sost (Mm00470479_m1); and ribosomal protein S2 (Mrps2) (Mm00475529_m1). We calculated relative mRNA amounts using the ΔCt method (Livak and Schmittgen, 2001). […]

[3] = biological target: T1, Piezo1; assay: Activation of Piezo1 in MLO-Y4 cells, overall conclusion from gene expression and calcium influx
Method: as §1

T1 sequence (E2JF22 whole entry): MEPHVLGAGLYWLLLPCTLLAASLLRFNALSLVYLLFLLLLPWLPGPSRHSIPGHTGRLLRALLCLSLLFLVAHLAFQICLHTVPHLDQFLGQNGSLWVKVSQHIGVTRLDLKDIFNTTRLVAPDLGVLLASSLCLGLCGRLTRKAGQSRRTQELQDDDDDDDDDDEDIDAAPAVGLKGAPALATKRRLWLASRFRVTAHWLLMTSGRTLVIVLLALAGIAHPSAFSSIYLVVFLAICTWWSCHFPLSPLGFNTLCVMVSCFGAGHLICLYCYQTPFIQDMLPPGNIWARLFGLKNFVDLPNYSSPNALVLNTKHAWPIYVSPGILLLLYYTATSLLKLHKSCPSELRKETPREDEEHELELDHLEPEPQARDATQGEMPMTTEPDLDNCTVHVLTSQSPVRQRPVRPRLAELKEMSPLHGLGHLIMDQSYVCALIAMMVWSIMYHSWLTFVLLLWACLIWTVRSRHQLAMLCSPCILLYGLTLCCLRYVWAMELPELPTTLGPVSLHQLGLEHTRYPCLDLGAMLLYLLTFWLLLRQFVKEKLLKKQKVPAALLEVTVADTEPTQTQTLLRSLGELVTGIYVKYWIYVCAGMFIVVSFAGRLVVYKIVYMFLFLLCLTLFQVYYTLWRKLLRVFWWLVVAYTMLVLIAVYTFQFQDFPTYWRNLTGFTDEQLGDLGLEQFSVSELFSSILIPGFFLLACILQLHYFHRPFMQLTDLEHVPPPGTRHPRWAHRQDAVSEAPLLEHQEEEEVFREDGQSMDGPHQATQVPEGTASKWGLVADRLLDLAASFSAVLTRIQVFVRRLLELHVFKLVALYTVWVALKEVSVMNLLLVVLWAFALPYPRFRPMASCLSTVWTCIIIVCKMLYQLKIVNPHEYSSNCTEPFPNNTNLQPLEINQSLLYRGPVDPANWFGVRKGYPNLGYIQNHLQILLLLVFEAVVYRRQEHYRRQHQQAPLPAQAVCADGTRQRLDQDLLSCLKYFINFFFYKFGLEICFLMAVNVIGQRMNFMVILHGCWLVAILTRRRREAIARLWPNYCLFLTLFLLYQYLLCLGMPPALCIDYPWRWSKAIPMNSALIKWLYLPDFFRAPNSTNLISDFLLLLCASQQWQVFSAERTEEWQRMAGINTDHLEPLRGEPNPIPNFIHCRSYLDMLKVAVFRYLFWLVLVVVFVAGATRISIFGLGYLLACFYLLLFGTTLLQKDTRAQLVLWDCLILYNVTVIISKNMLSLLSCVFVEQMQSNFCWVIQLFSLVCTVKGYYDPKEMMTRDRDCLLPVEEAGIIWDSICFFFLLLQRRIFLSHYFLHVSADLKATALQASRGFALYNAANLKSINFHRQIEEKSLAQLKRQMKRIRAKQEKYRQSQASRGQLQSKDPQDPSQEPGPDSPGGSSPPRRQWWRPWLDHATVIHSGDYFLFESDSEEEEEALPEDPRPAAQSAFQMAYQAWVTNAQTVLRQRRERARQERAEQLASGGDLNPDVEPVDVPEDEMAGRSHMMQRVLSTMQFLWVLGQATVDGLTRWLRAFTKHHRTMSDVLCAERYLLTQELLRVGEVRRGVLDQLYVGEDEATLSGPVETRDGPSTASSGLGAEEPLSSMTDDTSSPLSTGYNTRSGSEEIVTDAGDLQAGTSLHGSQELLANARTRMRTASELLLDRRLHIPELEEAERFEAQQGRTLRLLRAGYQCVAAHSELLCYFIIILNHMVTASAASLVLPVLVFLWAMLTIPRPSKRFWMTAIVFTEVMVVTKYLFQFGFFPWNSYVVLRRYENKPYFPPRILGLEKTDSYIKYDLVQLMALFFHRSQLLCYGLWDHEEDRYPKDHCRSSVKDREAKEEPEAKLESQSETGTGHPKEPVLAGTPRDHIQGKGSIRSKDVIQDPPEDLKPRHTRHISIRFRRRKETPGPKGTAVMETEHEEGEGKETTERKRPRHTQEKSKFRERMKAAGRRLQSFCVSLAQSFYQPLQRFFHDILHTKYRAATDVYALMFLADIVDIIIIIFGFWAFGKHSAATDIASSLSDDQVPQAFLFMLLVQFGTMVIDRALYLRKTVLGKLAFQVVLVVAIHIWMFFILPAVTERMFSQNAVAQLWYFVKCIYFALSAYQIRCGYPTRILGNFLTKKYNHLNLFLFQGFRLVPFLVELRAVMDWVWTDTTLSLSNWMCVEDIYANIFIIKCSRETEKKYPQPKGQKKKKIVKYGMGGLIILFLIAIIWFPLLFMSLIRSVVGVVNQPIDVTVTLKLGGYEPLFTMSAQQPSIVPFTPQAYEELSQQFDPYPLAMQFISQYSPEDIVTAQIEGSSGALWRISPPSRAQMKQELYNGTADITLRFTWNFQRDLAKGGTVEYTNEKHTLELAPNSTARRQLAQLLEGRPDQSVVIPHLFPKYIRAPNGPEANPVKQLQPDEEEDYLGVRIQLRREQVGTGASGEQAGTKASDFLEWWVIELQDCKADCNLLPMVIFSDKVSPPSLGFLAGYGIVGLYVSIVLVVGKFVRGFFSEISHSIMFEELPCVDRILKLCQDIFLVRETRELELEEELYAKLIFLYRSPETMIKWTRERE

## Clc1ccnc(Cl)c1CSc1nnc(-c2cnccn2)s1 [YW-3-159]
[1]
  calcium influx / increase of intracellular calcium in Piezo1 knock-down cells: completely blocked; also recorded: loss of their ability to stimulate calcium influx
[2]
  Ptgs2 expression compared with vehicle: higher Ptgs2 expression
  Tnfrsf11b expression compared with vehicle: higher Tnfrsf11b expression
  Wnt1 expression compared with vehicle: higher Wnt1 expression
[3]; MLO-Y4 cells
  Piezo1 agonist activity (conclusion in words): potent agonists for Piezo1; also recorded: potent and specific Piezo1 agonists
[3]; MLO-Y4 cells in vitro
  activity in activating Piezo1 compared to Yoda1: comparable or superior activity
